# Data as given in patent publication US8304239B2, “Direct regeneration of plantlets in Jatropha curcas” (Reliance Life Sciences PVT Ltd., priority 2006, dated 2012).
# What was measured:
# [1] = tested on: shoots of Jatropha curcas; experiment: Rooting of well grown shoots on full strength MS medium; assay type: cell-based; conditions: full strength MS medium supplemented with IBA (0.41 μM)
# Procedure: Well grown shoots of Jatropha curcas were separated individually and rooted on full strength MS medium supplemented with IBA (0.41 μM). Rooting was 80% and occurred after 30-45 days of culture without any intermediary callus phase. (FIG. 4)
# [2] = tested on: Jatropha leaf disc explants; experiment: Adventitious bud induction and callus formation from leaf disc explants on initiation media; assay type: cell-based, Jatropha curcas; conditions: TDZ treatment
# Excerpt: Micropropagated true-to-type Jatropha curcas plants were produced and leaf discs were isolated and sterilized using the methods described in Example 1.
# Experiments were set-up in a single-factor CRD (one-way ANOVA) to identify the most optimal concentrations of TDZ, BAP, and IBA in the initiation media. Initiated shoots were further propagated as described in the above Examples by being transferred to proliferation and elongation medium which was MS medium (Table 2) with 3% sucrose (w/v), pH 5.8 and solidified with 0.8% agar supplemented with TDZ (0.22 μM)+BAP (4.44 μM)+gibberelic acid (0.70 μM)+IBA (0.50 μM).
# All the treatments were performed with 25 replicates, each replication having 8 leaf discs. Data on number of shoots per leaf disc were recorded after 6 weeks of culture.
# Leaf discs cultured on almost all hormonal combinations readily produced hard and compact callus on cut surface within 30 days of culture. The adventitious bud induction from leaf disc explants was studied in presence of various concentrations of TDZ and BAP as a source of cytokinin along with very low levels of IBA.
# Data scored after 6 weeks of culture inoculation.
structure (smiles),measurement,setting,value
"O=C(O)CCCc1c[nH]c2ccccc12 [IBA, indole-3-butyric acid]",Time until rooting occurred,[1],30 to 45 days
same,Rooting,[1]; without intermediary callus phase,80%
"O=C(Nc1ccccc1)Nc1cnns1 [TDZ, 1-phenyl-3-(1,2,3-thiadiazol-5-yl) urea]",total number of shoot bud induction per leaf disc,[2],4-20 buds
